The molecules below were run against T1, human V1a receptor (Homo sapiens, UniProt P37288) (assay: V1a activity: human V1a receptor binding (3H-Vasopressin SPA, HEK293 membranes)). Conditions: membranes of HEK293 cells transiently transfected with human V1a receptor, Ki by Cheng-Prussoff equation, read-out: pKi hV1a (converted).
T1 construct: expressed in transfected cells; host or cells: HEK293 cells, transiently transfected; membrane preparation
Protocol: The human V1a receptor was cloned by RT-PCR from total human liver RNA. The coding sequence was subcloned in an expression vector after sequencing to confirm the identity of the amplified sequence. […] Cell membranes were prepared from HEK293 cells transiently transfected with the expression vector and grown in 20 liter fermenters with the following protocol.
50 g of cells were resuspended in 30 ml freshly prepared ice cold Lysis buffer (50 mM HEPES, 1 mM EDTA, 10 mM MgCl2 adjusted to pH=7.4+complete cocktail of protease inhibitor (Roche Diagnostics)); homogenized with Polytron for 1 min; and sonicated on ice for 2×2 minutes at 80% intensity (Vibracell sonicator). The preparation was centrifuged 20 min at 500 g at 4° C., the pellet was discarded and the supernatant centrifuged 1 hour at 43′000 g at 4° C. (19′000 rpm). The pellet was resuspended in 12.5 ml Lysis buffer+12.5 ml Sucrose 20% and homogenized using a Polytron for 1-2 min. The protein concentration was determined by the Bradford method, and aliquots were stored at −80° C. until use. For binding studies 60 mg Yttrium silicate SPA beads (Amersham) were mixed with an aliquot of membrane in binding buffer (50 mM Tris, 120 mM NaCl, 5 mM KCl, 2 mM CaCl2, 10 mM MgCl2) for 15 minutes with mixing. 50 ul of bead/membrane mixture was then added to each well of a 96 well plate, followed by 50 ul of 4 nM 3H-Vasopressin (American Radiolabeled Chemicals). For total binding measurement 100 ul of binding buffer were added to the respective wells, for non-specific binding 100 ul of 8.4 mM cold vasopressin and for compound testing 100 ul of a serial dilution of each compound in 2% DMSO. The plate was incubated 1 h at room temperature, centrifuged 1 min at 1000 g and counted on a Packard Top-Count. Non-specific binding counts were subtracted from each well and data was normalized to the maximum specific binding set at 100%. To calculate an IC 50 the curve was fitted using a non-linear regression model (XLfit), and the Ki was calculated using the Cheng-Prussoff equation.

T1 sequence (P37288 whole entry): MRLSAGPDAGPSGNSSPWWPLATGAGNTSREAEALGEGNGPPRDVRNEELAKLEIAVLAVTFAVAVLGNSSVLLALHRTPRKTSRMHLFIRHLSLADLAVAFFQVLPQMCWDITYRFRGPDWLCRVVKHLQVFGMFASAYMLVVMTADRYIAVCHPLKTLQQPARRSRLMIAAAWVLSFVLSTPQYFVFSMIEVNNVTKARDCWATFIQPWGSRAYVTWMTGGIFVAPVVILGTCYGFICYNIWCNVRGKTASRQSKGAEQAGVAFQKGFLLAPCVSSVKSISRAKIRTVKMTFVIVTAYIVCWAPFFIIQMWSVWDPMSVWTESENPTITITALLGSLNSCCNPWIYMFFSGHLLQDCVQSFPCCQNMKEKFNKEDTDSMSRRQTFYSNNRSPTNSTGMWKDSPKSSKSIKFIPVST

| SMILES | Ki [nM] |
| --- | --- |
| O=C1OC2(CCN(C(=O)c3ccc(Cl)c(Cl)c3)CC2)c2ccccc21 [Example 6, 1′-(3,4-Dichlorobenzoyl)-3H-spiro[2-benzofuran-1,4′-piperidin]-3-one] | 19.1 |
| COc1ccc2c(c1)C1(CCN(C(=O)c3ccc4ccccc4c3)CC1)OC2=O [Example 1, 6-Methoxy-1′-(2-naphthoyl)-3H-spiro[2-benzofuran-1,4′-piperidin]-3-one] | 8.32 |
| COc1cc(C(=O)N2CCC3(CC2)OCc2ccccc23)c2[nH]ccc2c1 [Example 27, 1′-[(5-Methoxy-1H-indol-7-yl)carbonyl]-3H-spiro[2-benzofuran-1,4′-piperidine]] | 50.1 |
| CC(C)(C)c1ccc(C(=O)N2CCC3(CC2)OCc2ccccc23)cc1 [Example 25, 1′-(4-tert-Butylbenzoyl)-3H-spiro[2-benzofuran-1,4′-piperidine]] | 63.1 |
| O=C1OC2(CCN(C(=O)c3ccc(Cl)c(Cl)c3)CC2)c2ccc(F)cc21 [Example 11, 1′-(3,4-Dichlorobenzoyl)-5-fluoro-3H-spiro[2-benzofuran-1,4′-piperidin]-3-one] | 29.5 |
| COc1ccc2c(c1)C(=O)OC21CCN(C(=O)c2ccc(Cl)c(Cl)c2)CC1 [Example 9, 1′-(3,4-Dichlorobenzoyl)-5-methoxy-3H-spiro[2-benzofuran-1,4′-piperidin]-3-one] | 47.9 |
| COc1ccc2c(c1)C1(CCN(C(=O)c3ccc(Cl)c(Cl)c3)CC1)OC2=O [Example 7, 1′-(3,4-Dichlorobenzoyl)-6-methoxy-3H-spiro[2-benzofuran-1,4′-piperidin]-3-one] | 28.8 |
| O=C(c1ccc2ccccc2c1)N1CCC2(CC1)C(=O)Nc1ccc(Br)cc12 [Example 33, 5-Bromo-1′-(2-naphthoyl)spiro[indole-3,4′-piperidin]-2(1H)-one] | 110 |
| O=C1OC2(CCN(C(=O)c3ccc(Cl)c(Cl)c3)CC2)c2cc(OCCO)ccc21 [Example 12, 1′-(3,4-Dichlorobenzoyl)-6-(2-hydroxyethoxy)-3H-spiro[2-benzofuran-1,4′-piperidin]-3-one] | 21.9 |
| O=C(c1ccc2ccccc2c1)N1CCC2(C=Cc3ccccc32)CC1 [Example 36, 1′-(2-Naphthoyl)spiro[indene-1,4′-piperidine]] | 89.1 |
| O=C(c1ccc(Cl)c(Cl)c1)N1CCC2(CCc3ccccc32)CC1 [Example 42, 1′-(3,4-Dichlorobenzoyl)-2,3-dihydrospiro[indene-1,4′-piperidine]] | 112 |

— patent US20080153862A1, “SPIROPIPERIDINE DERIVATIVES” (priority 2006, published 2008)
